Assay results: US20140163012A1, “PYRIDO-/AZEPINO-BENZOFURAN AND PYRIDO-/AZEPINO-BENZOTHIOPHENE MCH-1 ANTAGONISTS, METHODS OF MAKING, AND USE THEREOF” (Albany Molecular Research, Inc., priority 2012, published 2014)
Where a name gives a salt, the structure may show the parent alone.

How the values were obtained:
[1] = target: human MCH-1 receptor (Homo sapiens, UniProt Q99705); assay: Binding assay for human melanin-concentrating hormone (MCH-1) receptor, radioligand displacement on CHO-K1 cell membranes; details: for inhibition at 1 µM: read-out: MCH1 % inhibition @ 1 uM
human MCH-1 receptor, sequence (Q99705 whole entry): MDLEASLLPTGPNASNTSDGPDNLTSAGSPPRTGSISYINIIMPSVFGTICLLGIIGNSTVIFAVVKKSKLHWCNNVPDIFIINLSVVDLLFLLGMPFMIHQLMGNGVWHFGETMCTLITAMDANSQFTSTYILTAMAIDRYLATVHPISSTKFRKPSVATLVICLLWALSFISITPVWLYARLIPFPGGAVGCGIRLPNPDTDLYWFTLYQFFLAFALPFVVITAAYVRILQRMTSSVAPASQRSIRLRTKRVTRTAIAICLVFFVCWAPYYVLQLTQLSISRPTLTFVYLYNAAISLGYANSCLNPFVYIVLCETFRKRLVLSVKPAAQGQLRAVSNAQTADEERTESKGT
Method: Nonspecific binding was determined in the presence of 50 μM 1-(5-(4-cyanophenyl)bicyclo[3.1.0]hexan-2-yl)-3-(4-fluoro-3-(trifluoromethyl)phenyl)-1-(3-(4-methylpiperazin-1-yl)propyl)urea. […] The filters were counted for radioactivity in a liquid scintillation counter (Tri-Carb 2100TR, Packard) using a scintillation cocktail (Ultima Gold MV, Perkin Elmer).
The results are expressed as a percent inhibition of the control radioligand specific binding. The IC50 value (concentration causing a half-maximal inhibition of control specific binding) and Hill coefficient (nH) were determined by non-linear regression analysis of the competition curve using Hill equation curve fitting.

SMILES	Ki [1]	melting point	inhibition at 1 µM [1]
Cl.O=c1cc(OCc2ccc(F)cn2)cnn1-c1ccc2c3c(oc2c1)CCNC3 [Example 50, 5-((5-Fluoropyridin-2-yl)methoxy)-2-(1,2,3,4-tetrahydrobenzofuro[3,2-c]pyridin-7-yl)pyridazin-3(2H)-one hydrochloride]	36 nM	268 to 269 °C	–
Cc1ccc(COc2ccn(-c3ccc4c5c(oc4c3)CCNC5)c(=O)c2)cn1.Cl [Example 51, 4-((6-Methylpyridin-3-yl)methoxy)-1-(1,2,3,4-tetrahydrobenzofuro[3,2-c]pyridin-7-yl)pyridin-2(1H)-one hydrochloride]	145 nM	227 to 233 °C	–
Cl.O=c1cc(OCc2ccc(C(F)(F)F)nc2)ccn1-c1ccc2c3c(oc2c1)CCNC3 [Example 52, 1-(1,2,3,4-Tetrahydrobenzofuro[3,2-c]pyridin-7-yl)-4-((6-(trifluoromethyl)pyridin-3-yl)methoxy)pyridin-2(1H)-one hydrochloride]	73 nM	278 to 280 °C	–
Cl.O=c1cc(OCc2ccccc2)ccn1-c1ccc2sc3c(c2c1)CCNC3 [Example 65, 4-Benzyloxy-1-(1,2,3,4-tetrahydrobenzo[4,5]thieno[2,3-c]pyridin-6-yl)pyridin-2(1H)-one hydrochloride]	360 nM	170 °C	–
Cl.O=c1cc(OCc2ccc(F)cn2)ccn1-c1ccc2sc3c(c2c1)CCNC3 [Example 66, 4-((5-Fluoropyridin-2-yl)methoxy)-1-(1,2,3,4-tetrahydrobenzo[4,5]thieno[2,3-c]pyridin-6-yl)pyridin-2(1H)-one hydrochloride]	–	278 to 280 °C	34%
Cl.O=c1cc(OCc2ccccc2)ccn1-c1ccc2sc3c(c2c1)CNCC3 [Example 67, 4-Benzyloxy-1-(1,2,3,4-tetrahydrobenzo[4,5]thieno[3,2-c]pyridin-8-yl)pyridin-2(1H)-one hydrochloride]	–	245 to 247 °C	31%
Cl.O=c1cc(OCc2ccc(F)cn2)ccn1-c1ccc2sc3c(c2c1)CNCC3 [Example 68, 4-(5-Fluoropyridin-2-yl)methoxy-1-(1,2,3,4-tetrahydrobenzo[4,5]thieno[3,2-c]pyridin-8-yl)pyridin-2(1H)-one hydrochloride]	–	165 to 167 °C	13%
Cl.O=c1cc(OCc2ccc(F)cn2)ccn1-c1ccc2sc3c(c2c1)CCNCC3 [Example 69, 4-(5-Fluoropyridin-2-yl)methoxy-1-(2,3,4,5-tetrahydro-1H-benzo[4,5]thieno[2,3-d]azepin-9-yl)pyridin-2(1H)-one hydrochloride]	–	228 to 230 °C	69%
Cl.O=C1CN(CCc2ccc(F)cn2)CCN1c1ccc2c3c(oc2c1)CCNC3 [Example 70, 4-(2-(5-Fluoropyridin-2-yl)ethyl)-1-(1,2,3,4-tetrahydrobenzofuro[3,2-c]pyridin-7-yl)piperazin-2-one hydrochloride]	–	203 to 209 °C	66%
Cl.O=c1cc(-c2ccc(C(F)(F)F)cc2)ccn1-c1ccc2c3c(oc2c1)CCNC3 [Example 71, 1-(1,2,3,4-Tetrahydrobenzofuro[3,2-c]pyridin-7-yl)-4-(4-(trifluoromethyl)phenyl)pyridin-2(1H)-one hydrochloride]	7.5 nM	> 300 °C	–
Cl.O=c1cc(-c2ccc(C(F)(F)F)nn2)ccn1-c1ccc2c3c(oc2c1)CCNC3 [Example 88, 1-(1,2,3,4-Tetrahydrobenzofuro[3,2-c]pyridin-7-yl)-4-(6-(trifluoromethyl)pyridazin-3-yl)pyridin-2(1H)-one hydrochloride]	–	> 300 °C	41%
Cl.O=C1CN(CCc2ccc(Cl)cn2)CCN1c1ccc2c3c(oc2c1)CCNC3 [Example 91, 4-(2-(5-Chloropyridin-2-yl)ethyl)-1-(1,2,3,4-tetrahydrobenzofuro[3,2-c]pyridin-7-yl)piperazin-2-one hydrochloride]	84 nM	220 to 223 °C	–
O=C1CN(CCc2ccc(Cl)cc2)CCN1c1ccc2c3c(oc2c1)CCNCC3 [Example 99, 4-(4-Chlorophenethyl)-1-(2,3,4,5-tetrahydro-1H-benzofuro[2,3-d]azepin-8-yl)piperazin-2-one hydrochloride]	98 nM	–	–
O=c1cc(CCc2ccc(F)cn2)ccn1-c1ccc2c3c(oc2c1)CCCNC3 [Example 100, 4-(2-(5-Fluoropyridin-2-yl)ethyl)-1-(2,3,4,5-tetrahydro-1H-benzofuro[3,2-c]azepin-8-yl)pyridin-2(1H)-one hydrochloride]	8.1 nM	–	–
O=c1nc(CCc2ccc(Cl)cn2)ccn1-c1ccc2c3c(oc2c1)CCCNC3 [Example 103, 4-(2-(5-Chloropyridin-2-yl)ethyl)-1-(2,3,4,5-tetrahydro-1H-benzofuro[3,2-c]azepin-8-yl)pyrimidin-2(1H)-one hydrochloride]	8 nM	–	–
O=c1cc(-c2ccc(C(F)(F)F)nn2)ccn1-c1ccc2c3c(oc2c1)CCCNC3 [Example 106, 1-(2,3,4,5-Tetrahydro-1H-benzofuro[3,2-c]azepin-8-yl)-4-(6-(trifluoromethyl)pyridazin-3-yl)pyridin-2(1H)-one hydrochloride]	199 nM	–	–

SMILES	Ki [1]	melting point	inhibition at 1 µM [1]
O=c1cc(CCc2ccc(Cl)cn2)ccn1-c1ccc2c3c(oc2c1)CCCNC3 [Example 107, 4-(2-(5-Chloropyridin-2-yl)ethyl)-1-(2,3,4,5-tetrahydro-1H-benzofuro[3,2-c]azepin-8-yl)pyridin-2(1H)-one hydrochloride]	4.2 nM	–	–
O=c1cc(CCc2ccccc2)ccn1-c1ccc2c3c(oc2c1)CCCNC3 [Example 108, 4-Phenethyl-1-(2,3,4,5-tetrahydro-1H-benzofuro[3,2-c]azepin-8-yl)pyridin-2(1H)-one hydrochloride]	3.2 nM	–	–
O=c1cc(OCc2ccc(F)cn2)ccn1-c1ccc2oc3c(c2c1)CCCNC3 [Example 109, 4-((5-Fluoropyridin-2-yl)methoxy)-1-(2,3,4,5-tetrahydro-1H-benzofuro[2,3-c]azepin-7-yl)pyridin-2(1H)-one hydrochloride]	–	–	12%
O=c1cc(OCc2ccccc2)ccn1-c1ccc2oc3c(c2c1)CCCNC3 [Example 110, 4-(Benzyloxy)-1-(2,3,4,5-tetrahydro-1H-benzofuro[2,3-c]azepin-7-yl)pyridin-2(1H)-one hydrochloride]	–	–	12%
O=c1cc(OCc2ccc(C(F)(F)F)cn2)ccn1-c1ccc2c3c(oc2c1)CCNC3 [Example 115, 1-(1,2,3,4-Tetrahydrobenzofuro[3,2-c]pyridin-7-yl)-4-((5-(trifluoromethyl)pyridin-2-yl)methoxy)pyridin-2(1H)-one hydrochloride]	13 nM	–	–
O=c1cc(OCc2ccccc2)ccn1-c1ccc2sc3c(c2c1)CCCNC3 [Example 116, 4-(Benzyloxy)-1-(2,3,4,5-tetrahydro-1H-benzo[4,5]thieno[2,3-c]azepin-7-yl)pyridin-2(1H)-one hydrochloride]	–	–	37%
O=c1cc(OCc2ccccc2)ccn1-c1ccc2sc3c(c2c1)CCNCC3 [Example 117, 4-(Benzyloxy)-1-(2,3,4,5-tetrahydro-1H-benzo[4,5]thieno[2,3-d]azepin-9-yl)pyridin-2(1H)-one hydrochloride]	103 nM	–	–
O=C1CN(CCc2ccc(Cl)cn2)CCN1c1ccc2c3c(sc2c1)CNCC3 [Example 121, 4-(2-(5-Chloropyridin-2-yl)ethyl)-1-(1,2,3,4-tetrahydrobenzothieno[2,3-c]pyridin-7-yl)piperazin-2-one hydrochloride]	44 nM	–	–
O=c1cc(OCc2ccccc2)ccn1-c1ccc2c3c(sc2c1)CCCNC3 [Example 122, 4-(Benzyloxy)-1-(2,3,4,5-tetrahydro-1H-benzothieno[3,2-c]azepin-8-yl)pyridin-2(1H)-one hydrochloride]	3.3 nM	–	–
O=c1cc(OCc2ccc(Cl)cn2)ccn1-c1ccc2c3c(sc2c1)CCCNC3 [Example 123, 4-((5-Chloropyridin-2-yl)methoxy)-1-(2,3,4,5-tetrahydro-1H-benzothieno[3,2-c]azepin-8-yl)pyridin-2(1H)-one hydrochloride]	2.9 nM	–	–
O=c1cc(OCc2ccc(F)cn2)ccn1-c1ccc2c3c(sc2c1)CCCNC3 [Example 124, 4-((5-Fluoropyridin-2-yl)methoxy)-1-(2,3,4,5-tetrahydro-1H-benzothieno[3,2-c]azepin-8-yl)pyridin-2(1H)-one hydrochloride]	3.7 nM	–	–
O=c1cc(CCc2ccc(Cl)cn2)ccn1-c1ccc2c3c(sc2c1)CNCC3 [Example 125, 4-((5-Chloropyridin-2-yl)ethyl)-1-(1,2,3,4-tetrahydrobenzothieno[2,3-c]pyridin-7-yl)pyridin-2(1H)-one hydrochloride]	10 nM	–	–
O=c1cc(CCc2ccc(F)cn2)ccn1-c1ccc2c3c(sc2c1)CNCC3 [Example 126, 4-((5-Fluoropyridin-2-yl)ethyl)-1-(1,2,3,4-tetrahydrobenzothieno[2,3-c]pyridin-7-yl)pyridin-2(1H)-one hydrochloride]	20 nM	–	–
O=c1cc(CCc2ccccc2)ccn1-c1ccc2c3c(sc2c1)CNCC3 [Example 127, 4-Phenethyl-1-(1,2,3,4-tetrahydrobenzothieno[2,3-c]pyridin-7-yl)pyridin-2(1H)-one hydrochloride]	6.2 nM	–	–
O=c1cc(OCc2ccccc2)ccn1-c1ccc2c3c(oc2c1)CC1CCC3N1 (centres unmarked) [Example 128, 4-(Benzyloxy)-1-(7,8,9,10-tetrahydro-6H-7,10-epiminocyclohepta[b]benzofuran-3-yl)pyridin-2(1H)-one hydrochloride]	11 nM	–	–
O=c1cc(OCc2ccc(F)cn2)ccn1-c1ccc2c3c(oc2c1)CC1CCC3N1 (centres unmarked) [Example 129, 4-((5-Fluoropyridin-2-yl)methoxy)-1-(7,8,9,10-tetrahydro-6H-7,10-epiminocyclohepta[b]benzofuran-3-yl)pyridin-2(1H)-one hydrochloride]	14 nM	–	–
